Source: patent publication US10836793B2, “Compounds for the treatment of neurodegenerative diseases” (University of South Florida, priority 2018, dated 2020)

Key:
[1] = system: recombinant human tau protein; assay: ThT assay of tau protein aggregation; assay type: biochemical; conditions: 100, 50, 20, 10 and 1 μM HW-C-9; Tau 10 μM; FIG. 5
Protocol: (§1) The effect of HW-C-9 on Aβ42 was analyzed using the Thioflavin T (ThT) spectroscopic assay. Thioflavin T (ThT) is a benzothiazole salt obtained by the methylation of dehydrothiotoluidine with methanol in the presence of hydrochloric acid. ThT was used as a dye to visualize and quantify the presence or fibrilization of misfolded protein aggregates. Briefly, HW-C-9 in Tris Buffered Saline (TBS, pH 7.5) containing 10 μM ThT was added into a black 96 well plate. Aβ42 protein monomer was freshly thawed and used to make a stock 5 μM solution in TBS. An equal volume of Aβ42 solution was added to each well to a final concentration of 2.5 μM Aβ42 and incubated at 37° C. Time-dependent fluorescence change was monitored by a Synergy 2 plate reader at an excitation wavelength of 440 nm and emission at 482 nm. The fluorescence intensity of ThT was measured over time, as ThT changed fluorescence intensity upon binding to the Aβ42 protein aggregates. 100% aggregation was defined as the fluorescence change of 2.5 μM Aβ42 in TBS buffer containing 5 μM ThT after 24 hours.
The effect of HW-C-9 on recombinant human tau protein was analyzed using the ThT assay, as detailed in Example 2, but with tau protein in place of Aβ42. In FIG. 5, C1 is 100 μM of HW-C-9, C2 is 50 μM of HW-C-9, C3 is 20 μM of HW-C-9, C4 is 10 μM of HW-C-9, and C5 is 1 μM of HW-C-9. […]

[2] = molecular target: human recombinant alpha-synuclein (Homo sapiens, UniProt P37840); assay: Western blot of alpha-synuclein aggregation; assay type: biochemical; conditions: aggregated for 7 days in the presence of 25 μg/mL HW-C-9; FIG. 7
Protocol: The effect of HW-C-9 on synuclein was analyzed with a Western blot. Results are shown in FIG. 7, wherein lane 1 is human recombinant alpha-synuclein (stained with goat anti-human alpha-synuclein antibody) without aggregation as a control, lane 2 is human recombinant alpha-synuclein (stained with goat anti-human alpha-synuclein antibody) aggregated for 7 days, and lane 3 is human recombinant alpha-synuclein (stained with goat anti-human alpha-synuclein antibody) aggregated for 7 days in the presence of 25 μg/mL of HW-C-9.

[3] = system: Aβ42 amyloid plaques in mouse brain tissue; assay: Mouse brain tissue incubated with compound, immunohistochemical staining with Aβ42 antibodies; conditions: mouse brain tissue incubated overnight with 25 μM HW-C-9; FIG. 6B
Protocol: (§2) Shown in FIG. 6A is a Western blot of Aβ42, wherein lane 1 is 20 μM of Aβ, lane 2 is 40 μM of HW-155-1 as a control and 20 μM of Aβ, and lane 3 is 40 μM of HW-C-9 and 20 μM of Aβ. Shown in FIG. 6B on the left is mouse brain tissue incubated overnight with and without 25 μM of HW-C-9, and then immunohistochemically stained with Aβ42 antibodies. On the right of FIG. 6B is a graphical quantification of the density and strength of the antibody stains.

[4] = molecular target: T1, Aβ42 (Homo sapiens, UniProt P05067); assay: Thioflavin T (ThT) spectroscopic assay of Aβ42 aggregation; assay type: biochemical; conditions: 1, 5 and 10 μM HW-C-9; Aβ42 5 μM; 37° C.; FIG. 4
T1 construct: and 42 amino acids in length (Aβ42)
Protocol: as §1
In FIG. 4, C1 is 1 μM of HW-C-9, C3 is 5 μM of HW-C-9, and C4 is 10 μM of HW-C-9. Aβ42 was present in all samples at a concentration of 5 μM. The top curve (red line, “Agg”) is the Aβ42-only control.

[5] = molecular target: T1, Aβ42; assay: Western blot of Aβ42 aggregation; assay type: biochemical; conditions: 40 μM HW-C-9 and 20 μM Aβ; FIG. 6A
Protocol: as §2

T1 sequence (P05067 672-713 limits assumed): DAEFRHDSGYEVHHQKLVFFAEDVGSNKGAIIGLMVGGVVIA

In the case of `C=CCOC(=O)N(CC(=O)N[C@@H](Cc1ccccc1)CN(CC(=O)N[C@@H](CCCCN)CN(CC(=O)N[C@@H](CC(C)C)CN(CC(=O)NCCCCCCCC(=O)NCCCC[C@H](NC(=O)CCCCCCCNC(=O)CN(C[C@H](CC(C)C)NC(=O)CN(C[C@H](CCCCN)NC(=O)CN(C[C@H](Cc1ccccc1)NC(=O)CN(C[C@@H](N)CCCCN)C(=O)OCC=C)C(=O)CCc1ccccc1)C(=O)CC(C)C)C(=O)CC(C)C)C(N)=O)C(=O)CC(C)C)C(=O)CC(C)C)C(=O)CCc1ccccc1)C[C@@H](N)CCCCN` [HW-C-9], the “inhibition of tau protein aggregation (ThT fluorescence)” value [1] is reported as “can inhibit aggregation of tau protein at all concentrations tested”, the “inhibition of alpha-synuclein aggregation (Western blot)” value [2] is reported as “can inhibit aggregation of alpha-synuclein” and the “removal of amyloid plaques (density and strength of Aβ42 antibody stains)” value [3] is reported as “remove amyloid plaques”. The “inhibition of Aβ42 aggregation (ThT fluorescence)” value [4] was “can inhibit Aβ42 aggregation at all concentrations tested” and the “inhibition of Aβ42 aggregation (Western blot)” value [5] was “can inhibit aggregation of Aβ42”.
